Reference: publication PMC9266750, “Catalase Inhibition by Aminoalkanol Derivatives with Potential Anti-Cancer Activity—In Vitro and In Silico Studies Using Capillary Electrophoresis Method” (International Journal of Molecular Sciences, 2022)

Tested on: alkaline phosphatase
Assay: not given
Conditions: cited from earlier work

Structure (SMILES) | inhibition of enzymatic activity
CC(C)NCC(O)CN1C(=O)C2C(C1=O)C1(C)C(=O)C2(C)C(c2ccccc2)=C1c1ccccc1 (stereo not drawn) [Compound (III)] | inhibited
CN(C)CC(O)CN1C(=O)C2C(C1=O)C1(C)C(=O)C2(C)C(c2ccccc2)=C1c1ccccc1 (stereo not drawn) [Compound (IV)] | inhibited

Tested on: acid phosphatase
Assay: not given
Set-up: method as in PMID 34769193
Conditions: cited from earlier work

Structure (SMILES) | inhibition of enzymatic activity
CC(C)NCC(O)CN1C(=O)C2C(C1=O)C1(C)C(=O)C2(C)C(c2ccccc2)=C1c1ccccc1 (stereo not drawn) [Compound (III)] | inhibited
CN(C)CC(O)CN1C(=O)C2C(C1=O)C1(C)C(=O)C2(C)C(c2ccccc2)=C1c1ccccc1 (stereo not drawn) [Compound (IV)] | inhibited

Tested on: acetylcholinesterase
Assay: not given
Conditions: cited from earlier work

Structure (SMILES) | inhibition of enzymatic activity
CC(C)NCC(O)CN1C(=O)C2C(C1=O)C1(C)C(=O)C2(C)C(c2ccccc2)=C1c1ccccc1 (stereo not drawn) [Compound (III)] | inhibited
CN(C)CC(O)CN1C(=O)C2C(C1=O)C1(C)C(=O)C2(C)C(c2ccccc2)=C1c1ccccc1 (stereo not drawn) [Compound (IV)] | inhibited

Target: T1, Catalase from human erythrocytes (EC 1.11.1.6, CAT) (Homo sapiens, UniProt P04040)
T1 construct: Catalase from human erythrocytes (EC 1.11.1.6, CAT); purchased Sigma–Aldrich (Poznań, Poland); host or cells: human erythrocytes (natural source)
T1 sequence (P04040 2-527 limits assumed): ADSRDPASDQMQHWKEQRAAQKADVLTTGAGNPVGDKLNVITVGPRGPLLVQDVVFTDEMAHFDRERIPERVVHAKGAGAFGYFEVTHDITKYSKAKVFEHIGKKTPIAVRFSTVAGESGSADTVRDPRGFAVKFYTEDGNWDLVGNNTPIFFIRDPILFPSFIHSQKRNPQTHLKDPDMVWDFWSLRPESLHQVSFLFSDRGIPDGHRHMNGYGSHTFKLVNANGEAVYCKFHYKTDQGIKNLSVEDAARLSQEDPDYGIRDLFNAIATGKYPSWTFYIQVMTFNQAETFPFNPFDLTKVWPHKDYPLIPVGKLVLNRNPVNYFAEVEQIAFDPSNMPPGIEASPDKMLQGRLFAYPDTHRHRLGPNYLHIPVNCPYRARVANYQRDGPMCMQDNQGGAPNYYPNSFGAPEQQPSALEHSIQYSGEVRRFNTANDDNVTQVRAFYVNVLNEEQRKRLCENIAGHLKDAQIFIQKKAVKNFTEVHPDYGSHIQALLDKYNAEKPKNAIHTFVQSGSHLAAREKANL
Assay: Catalase (CAT) inhibition kinetics by capillary electrophoresis (hydrogen peroxide/guaiacol/tetraguaiacol)
Type: biochemical
Conditions: from Km and Vmax versus control system
From the text: In this study, we used the capillary electrophoresis (CE) method developed by us to determine the tetraguaiacol complex as a product of the catalase-catalyzed reaction (CAT) (Table 1) in the presence of the enzyme, hydrogen peroxide (HPER) (as a substrate), guaiacol (GCOL) and inhibitors (I), (II), (III) and (IV) (Figure 2). Based on this method, we investigated changes in the concentration of guaiacol reacting with changes in the concentration of hydrogen peroxide depending on the activity of catalase and changes in the concentrations of the formed tetraguaiacol as the final reaction product. The developed CE technique made it possible to measure all the parameters thanks to the possibility of using three wavelengths simultaneously in one analysis. Investigations of kinetic parameters were based on mutual measurements of concentration changes between guaiacol (as the second reactant reacting with hydrogen peroxide) and tetraguaiacol as the final reaction product.
For the development of this method, we optimized the buffer pH, separating background electrolyte (BGE) concentration, wavelength, temperature, and voltage in accordance with the earlier procedure. […]. All these separation systems were tested to achieve the best separation parameters, resolution, and analysis time for all components in the reaction mixture. The best separation of tetraguaiacol, guaiacol, catalase (CAT) and compounds (I), (II), (III), (IV) was obtained with 100 mM phosphate buffer (pH 7.5). The measurements were taken at 214, 274 and 470 nm with a fused-silica capillary (effective length: 20 cm, diameter: 50 μm). The capillary temperature was 25 °C, which allowed the best resolution to be achieved. Separation was carried out at 20 kV. Each sample was added to the capillary under hydrodynamic injection. Average detection times for guaiacol (GCOL), compounds (I), (II), (III), (IV), tetraguaiacol (TGCOL) and CAT were […], respectively (Figure 2). […]. […]
Electrophoretic separations of catalase (CAT), hydrogen peroxide, guaiacol (GCOL) tetra guaiacol (TGCOL), and inhibitors (I), (II), (III) and (IV) of catalase, by CE was performed using 100 mM (NaH2PO4) phosphate buffer as a background electrolyte (BGE) adjusted with 100 mM sodium hydroxide to the pH = 7.5. The samples were injected under 5 psi pressure for 3 s. The experiments were performed under constant current conditions (97 μA). The separation temperature was 25 °C, and the detection wavelengths were set at 214, 274 and 470 nm. Before the assay, the capillary was conditioned according to the previously described procedure.
Sample mixtures containing catalase (CAT), hydrogen peroxide (HPER), guaiacol (GCOL), tetra guaiacol (TGCOL), and inhibitors (I), (II), (III) and (IV) were introduced automatically by pressure injection (with 5 psi pressure for 3 s on the sample solution). At the day’s end, vials with anode and a cathode buffer were emptied and a running buffer was filled again at the start of the next day before the analysis. The detector wavelength was fixed at 470 nm. Hydrogen peroxide was not detected at wavelength of 470 nm. The appropriate parameters for analyzing CAT, TGCOL and (I), (II), (III) and (IV) inhibitors were as follows: phosphate buffer (pH = 7.5) of 100 mM concentration, 25 °C temperature, and 20 kV voltage.
The CAT in the amount of 10 μg was dissolved in the 10 mL 100 mM phosphate buffer, pH 7.5 and divided into several portions, which were stored at −20 °C. One aliquot was thawed each day and the CAT activity was checked. For kinetic studies a catalase solution with a final concentration of 1 µg/mL was prepared. The working solutions of GCOL, TGCOL and HPER in appropriate concentrations were prepared immediately before use by dilution with the phosphate buffer according to the previously described procedure. […]

Structure (SMILES) | Type of inhibition
CC(C)NCC(O)CN1C(=O)C2C(C1=O)C1(C)C(=O)C2(C)C(c2ccccc2)=C1c1ccccc1 (stereo not drawn) [Compound (III)] | Competitive
CN(C)CC(O)CN1C(=O)C2C(C1=O)C1(C)C(=O)C2(C)C(c2ccccc2)=C1c1ccccc1 (stereo not drawn) [Compound (IV)] | Competitive

Same assay, conditions: from activity (%) versus inhibitor concentration plots; one value per compound

Structure (SMILES) | IC50
CC(C)NCC(O)CN1C(=O)C2C(C1=O)C1(C)C(=O)C2(C)C(c2ccccc2)=C1c1ccccc1 (stereo not drawn) [Compound (III)] | 10.3 ± 0.03 mM
CN(C)CC(O)CN1C(=O)C2C(C1=O)C1(C)C(=O)C2(C)C(c2ccccc2)=C1c1ccccc1 (stereo not drawn) [Compound (IV)] | 12.2 ± 0.06 mM

Same assay, conditions: inhibitor 2.50 mM; without inhibitor 1.26 ± 0.02

Structure (SMILES) | Vmax
CC(C)NCC(O)CN1C(=O)C2C(C1=O)C1(C)C(=O)C2(C)C(c2ccccc2)=C1c1ccccc1 (stereo not drawn) [Compound (III)] | 1.24 ± 0.07 mM/min
CN(C)CC(O)CN1C(=O)C2C(C1=O)C1(C)C(=O)C2(C)C(c2ccccc2)=C1c1ccccc1 (stereo not drawn) [Compound (IV)] | 1.25 ± 0.03 mM/min

Same assay, conditions: inhibitor 2.50 mM; without inhibitor 23.31 ± 0.04; n = 6

Structure (SMILES) | Slope (slope angle of Lineweaver–Burk line)
CC(C)NCC(O)CN1C(=O)C2C(C1=O)C1(C)C(=O)C2(C)C(c2ccccc2)=C1c1ccccc1 (stereo not drawn) [Compound (III)] | 25.09 ± 0.04
CN(C)CC(O)CN1C(=O)C2C(C1=O)C1(C)C(=O)C2(C)C(c2ccccc2)=C1c1ccccc1 (stereo not drawn) [Compound (IV)] | 24.33 ± 0.06

Same assay, conditions: inhibitor 5.00 mM

Structure (SMILES) | Vmax
CC(C)NCC(O)CN1C(=O)C2C(C1=O)C1(C)C(=O)C2(C)C(c2ccccc2)=C1c1ccccc1 (stereo not drawn) [Compound (III)] | 1.25 ± 0.08 mM/min
CN(C)CC(O)CN1C(=O)C2C(C1=O)C1(C)C(=O)C2(C)C(c2ccccc2)=C1c1ccccc1 (stereo not drawn) [Compound (IV)] | 1.24 ± 0.06 mM/min

Same assay, conditions: inhibitor 5.00 mM; n = 6

Structure (SMILES) | Slope (slope angle of Lineweaver–Burk line)
CC(C)NCC(O)CN1C(=O)C2C(C1=O)C1(C)C(=O)C2(C)C(c2ccccc2)=C1c1ccccc1 (stereo not drawn) [Compound (III)] | 25.84 ± 0.05
CN(C)CC(O)CN1C(=O)C2C(C1=O)C1(C)C(=O)C2(C)C(c2ccccc2)=C1c1ccccc1 (stereo not drawn) [Compound (IV)] | 25.00 ± 0.05

Same assay, conditions: inhibitor 10.00 mM

Structure (SMILES) | Vmax
CC(C)NCC(O)CN1C(=O)C2C(C1=O)C1(C)C(=O)C2(C)C(c2ccccc2)=C1c1ccccc1 (stereo not drawn) [Compound (III)] | 1.24 ± 0.07 mM/min
CN(C)CC(O)CN1C(=O)C2C(C1=O)C1(C)C(=O)C2(C)C(c2ccccc2)=C1c1ccccc1 (stereo not drawn) [Compound (IV)] | 1.24 ± 0.06 mM/min

Same assay, conditions: inhibitor 10.00 mM; n = 6

Structure (SMILES) | Slope (slope angle of Lineweaver–Burk line)
CC(C)NCC(O)CN1C(=O)C2C(C1=O)C1(C)C(=O)C2(C)C(c2ccccc2)=C1c1ccccc1 (stereo not drawn) [Compound (III)] | 28.60 ± 0.04
CN(C)CC(O)CN1C(=O)C2C(C1=O)C1(C)C(=O)C2(C)C(c2ccccc2)=C1c1ccccc1 (stereo not drawn) [Compound (IV)] | 26.24 ± 0.04

Same assay, conditions: inhibitor 15.00 mM

Structure (SMILES) | Vmax
CC(C)NCC(O)CN1C(=O)C2C(C1=O)C1(C)C(=O)C2(C)C(c2ccccc2)=C1c1ccccc1 (stereo not drawn) [Compound (III)] | 1.24 ± 0.09 mM/min
CN(C)CC(O)CN1C(=O)C2C(C1=O)C1(C)C(=O)C2(C)C(c2ccccc2)=C1c1ccccc1 (stereo not drawn) [Compound (IV)] | 1.23 ± 0.05 mM/min

Same assay, conditions: inhibitor 15.00 mM; n = 6

Structure (SMILES) | Slope (slope angle of Lineweaver–Burk line)
CN(C)CC(O)CN1C(=O)C2C(C1=O)C1(C)C(=O)C2(C)C(c2ccccc2)=C1c1ccccc1 (stereo not drawn) [Compound (IV)] | 27.30 ± 0.05

Same assay, conditions: inhibitor 20.00 mM

Structure (SMILES) | Vmax
CC(C)NCC(O)CN1C(=O)C2C(C1=O)C1(C)C(=O)C2(C)C(c2ccccc2)=C1c1ccccc1 (stereo not drawn) [Compound (III)] | 1.25 ± 0.02 mM/min
CN(C)CC(O)CN1C(=O)C2C(C1=O)C1(C)C(=O)C2(C)C(c2ccccc2)=C1c1ccccc1 (stereo not drawn) [Compound (IV)] | 1.26 ± 0.02 mM/min

Same assay, conditions: inhibitor 20.00 mM, hydrogen peroxide 10 mM, 20.00 mM GCOL; without inhibitors 0.00 mM

Structure (SMILES) | tetraguaiacol (TGCOL) concentration in the presence of inhibitor
CC(C)NCC(O)CN1C(=O)C2C(C1=O)C1(C)C(=O)C2(C)C(c2ccccc2)=C1c1ccccc1 (stereo not drawn) [Compound (III)] | 8.29 mM
CN(C)CC(O)CN1C(=O)C2C(C1=O)C1(C)C(=O)C2(C)C(c2ccccc2)=C1c1ccccc1 (stereo not drawn) [Compound (IV)] | 4.39 mM

Same assay, conditions: inhibitor 20.00 mM, hydrogen peroxide 10 mM, 20.00 mM GCOL; without inhibitors 20.00 mM

Structure (SMILES) | guaiacol (GCOL) concentration in the presence of inhibitor
CC(C)NCC(O)CN1C(=O)C2C(C1=O)C1(C)C(=O)C2(C)C(c2ccccc2)=C1c1ccccc1 (stereo not drawn) [Compound (III)] | 11.71 mM
CN(C)CC(O)CN1C(=O)C2C(C1=O)C1(C)C(=O)C2(C)C(c2ccccc2)=C1c1ccccc1 (stereo not drawn) [Compound (IV)] | 15.61 mM

Same assay, conditions: inhibitor 20.00 mM; n = 6

Structure (SMILES) | Slope (slope angle of Lineweaver–Burk line)
CC(C)NCC(O)CN1C(=O)C2C(C1=O)C1(C)C(=O)C2(C)C(c2ccccc2)=C1c1ccccc1 (stereo not drawn) [Compound (III)] | 32.68 ± 0.02
CN(C)CC(O)CN1C(=O)C2C(C1=O)C1(C)C(=O)C2(C)C(c2ccccc2)=C1c1ccccc1 (stereo not drawn) [Compound (IV)] | 29.27 ± 0.03
